Experimental data: the supplement of paper PMC10307832

Assays:
Assay in all cases: relative viability (nuclei count vs DMSO), 5 days (fraction); higher = more cells survive
Metformin + Luminespib = compound: CN(C)C(=N)NC(=N)N [Metformin] + CCNC(=O)c1noc(-c2cc(C(C)C)c(O)cc2O)c1-c1ccc(CN2CCOCC2)cc1 [Luminespib] (partner 0.01 µM)
Outline: (§1)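 Relative viability divides the nuclei count in treated wells by that in vehicle wells. Lung cancer cell lines were seeded in 1536-well plates, dosed by pin tool the next day, and fixed and stained after 5 days in one step with final 0.05% Triton X-100, 1% formaldehyde and 1 ug/ml Hoechst. Dosing was a single drug or a fixed anchor-drug dose plus five library-drug doses (not always all listed) in √10 steps, and values are medians of duplicate plates imaged at 4×.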

Apatinib + Palbociclib = compound: N#CC1(c2ccc(NC(=O)c3cccnc3NCc3ccncc3)cc2)CCCC1 [Apatinib] + CC(=O)c1c(C)c2cnc(Nc3ccc(N4CCNCC4)cn3)nc2n(C2CCCC2)c1=O [Palbociclib] (partner 0.5 µM)
Outline: as §1

Apatinib + Pictilisib = compound: N#CC1(c2ccc(NC(=O)c3cccnc3NCc3ccncc3)cc2)CCCC1 [Apatinib] + CS(=O)(=O)N1CCN(Cc2cc3nc(-c4cccc5[nH]ncc45)nc(N4CCOCC4)c3s2)CC1 [Pictilisib] (partner 1 µM)
Outline: as §1

Apatinib + AZD7762 = compound: N#CC1(c2ccc(NC(=O)c3cccnc3NCc3ccncc3)cc2)CCCC1 [Apatinib] + NC(=O)Nc1cc(-c2cccc(F)c2)sc1C(=O)N[C@H]1CCCNC1 [AZD7762] (partner 0.2 µM)
Outline: as §1

Q: Which results are given for NCI-H460?
A: relative viability (Metformin + Luminespib; first compound 10 µM): 0.048; relative viability (Metformin + Luminespib; first compound 31.62 µM): 0.0359; relative viability (Metformin + Luminespib; first compound 100 µM): 0.0322; relative viability (Metformin + Luminespib; first compound 316.23 µM): 0.0306; relative viability (Metformin + Luminespib; first compound 1000 µM): 0.0333; relative viability (Apatinib + Palbociclib; first compound 0.08 µM): 0.188; relative viability (Apatinib + Palbociclib; first compound 0.253 µM): 0.191; relative viability (Apatinib + Palbociclib; first compound 0.8 µM): 0.103; relative viability (Apatinib + Palbociclib; first compound 2.53 µM): 0.182; relative viability (Apatinib + Palbociclib; first compound 8 µM): 0.137; relative viability (Apatinib + Pictilisib; first compound 0.08 µM): 0.335; relative viability (Apatinib + Pictilisib; first compound 0.253 µM): 0.374; relative viability (Apatinib + Pictilisib; first compound 0.8 µM): 0.452; relative viability (Apatinib + Pictilisib; first compound 2.53 µM): 0.391; relative viability (Apatinib + Pictilisib; first compound 8 µM): 0.458; relative viability (Apatinib + AZD7762; first compound 0.08 µM): 0.538; relative viability (Apatinib + AZD7762; first compound 0.253 µM): 0.581; relative viability (Apatinib + AZD7762; first compound 0.8 µM): 0.417; relative viability (Apatinib + AZD7762; first compound 2.53 µM): 0.269; relative viability (Apatinib + AZD7762; first compound 8 µM): 0.394
